Series [1] deals with T1, tyrosinase (Mus musculus, UniProt P11344).
T1 construct: the supernatant obtained constituted the cell lysate used as the source of tyrosinase in the enzymatic test; endogenous in cells; host or cells: B16F1 murine melanoma cells, stimulated with alpha-MSH; detergent lysate supernatant
T1 sequence (P11344 19-533): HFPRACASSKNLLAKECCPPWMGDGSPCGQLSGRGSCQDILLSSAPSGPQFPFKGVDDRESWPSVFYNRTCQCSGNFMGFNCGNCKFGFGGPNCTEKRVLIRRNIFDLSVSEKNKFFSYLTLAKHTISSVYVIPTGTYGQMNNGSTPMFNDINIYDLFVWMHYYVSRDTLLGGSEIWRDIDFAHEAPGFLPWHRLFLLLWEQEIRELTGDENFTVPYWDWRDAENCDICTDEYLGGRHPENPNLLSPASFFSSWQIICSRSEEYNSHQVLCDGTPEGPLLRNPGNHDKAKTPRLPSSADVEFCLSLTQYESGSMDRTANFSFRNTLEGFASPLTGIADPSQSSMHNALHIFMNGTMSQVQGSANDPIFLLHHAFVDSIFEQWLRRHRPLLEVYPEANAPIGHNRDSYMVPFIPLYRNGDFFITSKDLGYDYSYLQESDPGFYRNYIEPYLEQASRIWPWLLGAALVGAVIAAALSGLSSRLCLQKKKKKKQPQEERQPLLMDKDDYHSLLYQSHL
Kind of series: Tyrosinase activity inhibition test (B16F1 cell lysate, L-tyrosine/MBTH, 520 nm). As to conditions: lysate of B16F1 cells, 6 hours incubation at 37° C.; read-out: Tyrosine hydroxylase/Dopa oxidase IC50. In kind it is biochemical, murine. The method, then: The activity of the inhibitors was measured using a lysate of B16F1 cells (murine melanoma line). In the presence of L-tyrosine substrate, the tyrosinase present in these cells catalyses the hydroxylation of L-tyrosine to L-DOPA then oxidation of the L-DOPA to dopaquinone. In the presence of MBTH (3-methyl-2-benzo-thiazolinone hydrazone), dopaquinone is trapped to form a pink complex which absorbs at 520 nm.
The B16F1 cells were cultivated in DMEM medium+10% foetal calf serum+10^−9 M of αMSH for 4 days at 37° C. under 7% CO2. They were treated with trypsin, washed with PBS, counted and centrifuged. The pellet was taken up in an amount of 10^7 cells/mL in lysis buffer (sodium phosphate, 10 mM pH 6.8-Igepal 1%) and the suspension was treated with ultrasound for 10 seconds. After centrifuging for 30 minutes at 4000 rpm, the supernatant obtained constituted the cell lysate used as the source of tyrosinase in the enzymatic test.
The tests were carried out in duplicate in 384-well plates with a total volume of 50 μl. Each well contained: […]
The plate was incubated at 37° C. and a spectrographic recording was produced at 520 nm after 6 hours incubation. In order to compensate for any absorption by the products, a corrected absorbance was used (absorbance at time 6 h−absorbance at time zero). […]

Series [2] deals with MNT1 human melanoma cells. Kind of series: Melanogenesis inhibition test (14C-thiouracil incorporation normalized by 3H-leucine). In kind it is cell-based. Particulars: MNT-1, 24 h incubation, 14C incorporation normalized by 3H incorporation. As for the experimental part:
(§1) The inhibition of melanogenesis was measured in MNT1 human melanoma cells using a protocol adapted from Reigner et al, Cell Mol Biol (1999) 45: 969-980. The test was based on the concomitant incorporation of 2 radiolabelled tracers: ^14C-thiouracil is incorporated into neosynthesized melanin and reflects melanogenesis, while ^3H-leucine is incorporated into proteins and reflects cell viability and, as a result, the toxicity of the test compounds.
(§2) The MNT1 cells were plated into 96-well plates in the presence of the test compounds and radioisotopes. After 24 h incubation at 37° C., the cells were washed and the quantity of the 2 radioisotopes was measured. The test compounds were dose-response tested in order to calculate the IC50 inhibition of melanogenesis on the basis of the ^14C incorporation which was normalized by the ^3H incorporation. A cell toxicity IC50 was also calculated on the basis of the ^3H incorporation.

Series [3] in a line: Cell toxicity (3H-leucine incorporation) in the melanogenesis inhibition test. In kind it is cell-based. Particulars: human, MNT1 human melanoma cells, 24 h incubation. As for the experimental part:
as §1, §2

Some results are limits rather than exact numbers.

As for `CCCCc1ccc(O)cc1O` [4-butylresorcinol (Rucinol), 4-butylresorcinol, reference compound], the values for the IC50 in series [1] and in series [2] were 3000 nM and 15 µM, respectively. The same molecule returned an IC50 at 24 h in series [3] of 55 µM.

What is called melting point is the temperature of the solid-liquid transition. As to `O=S(=O)(Cc1ccccc1)N1CCC(c2ccc(O)cc2O)CC1` [Compound 1, 4-(1-phenylmethanesulphonylpiperidin-4-yl)-benzene-1,3-diol], the melting point lay in the range of 207 to 208 °C. For the same molecule, the IC50 in series [2] came to 0.2 µM. Moreover, the IC50 at 24 h in series [3] was over 999 µM.

Regarding `Cc1ccc(S(=O)(=O)N2CCC(c3ccc(O)cc3O)CC2)cc1` [Compound 2, 4-[1-(toluene-4-sulphonyl)piperidin-4-yl]-benzene-1,3-diol], the IC50 in series [1] came to 1500 nM.

The values are drawn from patent publication US20120323012A1, “4-(AZACYCLOALKYL) -BENZENE-1,3-DIOL DERIVATIVES AS TYROSINASE INHIBITORS AND THEIR SYNTHESIS AND USE THEREOF” (GALDERMA RESEARCH & DEVELOPMENT, priority 2009, published 2012).
